Measured values from ChEMBL document CHEMBL5625210, “5-Cyano substituted diarylpyridines as potent HIV-1 NNRTIs: Rational design, synthesis, and activity evaluation” (Eur J Med Chem, 2023).
pEC50, pIC50: −log10 of the molar value.

What was measured:
[1] = system: Human immunodeficiency virus 2; assay: Antiviral activity against wild type HIV-2 ROD infected in human MT4 cells assessed as protection against virus-induced cytopathic effect incubated for 5 days by MTT assay; assay type: functional, organism-based; conditions: Human immunodeficiency virus 2, ROD, MT4, 120 h
[2] = system: Human immunodeficiency virus 1; assay: Antiviral activity against wild type HIV-1 IIIB infected in human MT4 cells assessed as protection against virus-induced cytopathic effect incubated for 5 days by MTT assay; assay type: functional, organism-based; conditions: Human immunodeficiency virus 1, IIIB, MT4, 120 h
[3] = Cytotoxicity against human MT4 cells assessed as reduction in cell viability incubated for 5 days by MTT assay; assay type: toxicity, cell-based; conditions: time 5 day
[4] = biological target: Human immunodeficiency virus type 1 reverse transcriptase (Human immunodeficiency virus 1, UniProt Q72547); assay: Inhibition of wild type HIV-1 reverse transcriptase assessed as inhibition of biotin-dUTP incorporation using ABTS as substrate incubated for 1 hrs by ELISA analysis
in vitro = conditions: human, MT4 cells
Description: Selectivity index, ratio of CC50 for cytotoxicity against human MT4 cells to EC50 for antiviral activity against wild type HIV-1 IIIB infected in human MT4 cells

[5] = system: Human immunodeficiency virus 1; assay: Antiviral activity against HIV-1 […] mutant infected in human MT4 cells assessed as protection against virus-induced cytopathic effect incubated for 5 days by MTT assay; assay type: functional, organism-based; conditions: Human immunodeficiency virus 1, MT4, 120 h
[6] = system: Human immunodeficiency virus 1; assay: Antiviral activity against HIV-1 K103N mutant infected in human MT4 cells assessed as protection against virus-induced cytopathic effect incubated for 5 days by MTT assay; assay type: functional, organism-based; conditions: Human immunodeficiency virus 1, MT4, 120 h
[7] = system: Human immunodeficiency virus 1; assay: Antiviral activity against HIV-1 Y181C mutant infected in human MT4 cells assessed as protection against virus-induced cytopathic effect incubated for 5 days by MTT assay; assay type: functional, organism-based; conditions: Human immunodeficiency virus 1, MT4, 120 h
[8] = system: Human immunodeficiency virus 1; assay: Antiviral activity against HIV-1 Y188L mutant infected in human MT4 cells assessed as protection against virus-induced cytopathic effect incubated for 5 days by MTT assay; assay type: functional, organism-based; conditions: Human immunodeficiency virus 1, MT4, 120 h
[9] = system: Human immunodeficiency virus 1; assay: Antiviral activity against HIV-1 E138K mutant infected in human MT4 cells assessed as protection against virus-induced cytopathic effect incubated for 5 days by MTT assay; assay type: functional, organism-based; conditions: Human immunodeficiency virus 1, MT4, 120 h
[10] = system: Human immunodeficiency virus 1; assay: Antiviral activity against HIV-1 F227L/V106A mutant infected in human MT4 cells assessed as protection against virus-induced cytopathic effect incubated for 5 days by MTT assay; assay type: functional, organism-based; conditions: Human immunodeficiency virus 1, MT4, 120 h
[11] = system: Human immunodeficiency virus 1; assay: microbe, parasite or virus in culture; conditions: Human immunodeficiency virus 1, MT4, 120 h
Description: Antiviral activity against HIV-1 RES056 mutant infected in human MT4 cells assessed as protection against virus-induced cytopathic effect incubated for 5 days by MTT assay

## Cc1cc(C#N)cc(C)c1Oc1ccc(C#N)c(Nc2ccc(CN3CCN(S(C)(=O)=O)CC3)cc2)n1
[1]
  pEC50: < 7.74
[2]
  pEC50: 7.39
[3]
  CC50 at 120 h: 18 µM
[4]
  pIC50: 6.56
In vitro
  selectivity ratio: 444

## Cc1cc(C#N)cc(C)c1Oc1ccc(C#N)c(NC2CCN(Cc3ccc(C(N)=O)cc3)CC2)n1
[1]
  pEC50: < 7.54
[2]
  pEC50: 8.08
[3]
  CC50 at 120 h: 28.6 µM
[5]
  pEC50: 6.50
[6]
  pEC50: 6.96
[7]
  pEC50: 6.96
[8]
  pEC50: 6.46
[9]
  pEC50: 7.30
[10]
  pEC50: 5.99
[4]
  pIC50: 6.59
In vitro
  selectivity ratio: 3440
[11]
  pEC50: 5.37

## Cc1cc(C#N)cc(C)c1Oc1ccc(C#N)c(Nc2ccc(C#N)c(C#N)c2)n1
[1]
  pEC50: < 6.49
[2]
  pEC50: 6.94
[3]
  CC50 at 120 h: > 320 µM
[4]
  pIC50: 6.16
In vitro
  selectivity ratio: > 2780

## O=C1Nc2ccc(Cl)cc2[C@@](C#CC2CC2)(C(F)(F)F)O1 [EFAVIRENZ]
[2]
  pEC50: 8.60
[3]
  CC50 at 120 h: > 6.34 µM
[5]
  pEC50: 7.50
[6]
  pEC50: 6.94
[7]
  pEC50: 8.20
[8]
  pEC50: 6.45
[9]
  pEC50: 8.20
[10]
  pEC50: 6.05

## Cc1cc(C#N)cc(C)c1Oc1nc(Nc2ccc(C#N)c(C#N)c2)c(C#N)cc1Cl
[1]
  pEC50: < 6.69
[2]
  pEC50: 7.85
[3]
  CC50 at 120 h: 202 µM
[5]
  pEC50: 6.50
[6]
  pEC50: 6.63
[7]
  pEC50: 5.95
[8]
  pEC50: < 3.69
[9]
  pEC50: 6.54
[10]
  pEC50: 5.65
[4]
  pIC50: 6.84
In vitro
  selectivity ratio: 14300
[11]
  pEC50: < 3.69

## Cc1cn([C@@H]2C[C@@H](N=[N+]=[N-])[C@H](CO)O2)c(=O)[nH]c1=O
[1]
  pEC50: 10.44
[2]
  pEC50: 7.52
[3]
  CC50 at 120 h: > 7.48 µM
[5]
  pEC50: 7.98
[6]
  pEC50: 7.53
[7]
  pEC50: 7.66
[8]
  pEC50: 7.68
[9]
  pEC50: 7.63
[10]
  pEC50: 7.42
In vitro
  selectivity ratio: > 250
[11]
  pEC50: 7.54

## Cc1cc(C#N)cc(C)c1Oc1ccc(C#N)c(NC2CCN(Cc3ccc(S(N)(=O)=O)cc3)CC2)n1
[1]
  pEC50: < 7.66
[2]
  pEC50: 8.41
[3]
  CC50 at 120 h: 21.8 µM
[5]
  pEC50: 7.13
[6]
  pEC50: 7.71
[7]
  pEC50: 7.43
[8]
  pEC50: 6.94
[9]
  pEC50: 7.71
[10]
  pEC50: 6.71
[4]
  pIC50: 6.69
In vitro
  selectivity ratio: 5630
[11]
  pEC50: 5.56

## Cc1cc(C#N)cc(C)c1Oc1nc(Nc2ccc(CN3CCN(S(=O)(=O)N(C)C)CC3)cc2)c(C#N)cc1F
[1]
  pEC50: < 6.83
[2]
  pEC50: 6.70
[3]
  CC50 at 120 h: 149 µM
[4]
  pIC50: 5.59
In vitro
  selectivity ratio: 744

## Cc1cc(C#N)cc(C)c1Oc1nc(Nc2ccc(C#N)c(F)c2)c(C#N)cc1Cl
[1]
  pEC50: < 6.55
[2]
  pEC50: 7.60
[3]
  CC50 at 120 h: 282 µM
[4]
  pIC50: 7.01
In vitro
  selectivity ratio: 11300

## Cc1cc(C#N)cc(C)c1Oc1nc(Nc2ccc(CN3CCN(S(C)(=O)=O)CC3)cc2)c(C#N)cc1F
[1]
  pEC50: < 6.67
[2]
  pEC50: 7.35
[3]
  CC50 at 120 h: 213 µM
[4]
  pIC50: 6.53
In vitro
  selectivity ratio: 4740

## Cc1cc(C#N)cc(C)c1Oc1ccc(C#N)c(Nc2ccc(C#N)cc2)n1
[1]
  pEC50: < 6.49
[2]
  pEC50: 8.11
[3]
  CC50 at 120 h: > 65.2 µM
[5]
  pEC50: 6.91
[6]
  pEC50: 6.35
[7]
  pEC50: 5.81
[8]
  pEC50: ≤ 4.48
[9]
  pEC50: 7.26
[10]
  pEC50: 4.96
[4]
  pIC50: 7.03
In vitro
  selectivity ratio: > 8330
[11]
  pEC50: < 4.19

## Cc1cc(C#N)cc(C)c1Oc1nc(NC2CCN(Cc3ccc(C(N)=O)cc3)CC2)c(C#N)cc1Cl
[1]
  pEC50: < 6.81
[2]
  pEC50: 8.23
[3]
  CC50 at 120 h: 154 µM
[5]
  pEC50: 7.18
[6]
  pEC50: 7.51
[7]
  pEC50: 7.39
[8]
  pEC50: 6.66
[9]
  pEC50: 7.48
[10]
  pEC50: 6.45
[4]
  pIC50: 6.40
In vitro
  selectivity ratio: 26500
[11]
  pEC50: 5.61

## Cc1cc(C#N)cc(C)c1Oc1nc(NC2CCN(Cc3ccc(S(N)(=O)=O)cc3)CC2)c(C#N)cc1F
[1]
  pEC50: < 7.60
[2]
  pEC50: 7.95
[3]
  CC50 at 120 h: 25.2 µM
[5]
  pEC50: 7.37
[6]
  pEC50: 7.77
[7]
  pEC50: 7.35
[8]
  pEC50: 6.80
[9]
  pEC50: 7.28
[10]
  pEC50: 6.63
[4]
  pIC50: 6.53
In vitro
  selectivity ratio: 2250
[11]
  pEC50: 6.59

## Cc1cc(C#N)cc(C)c1Oc1nc(Nc2ccc(C#N)cc2)nc(N)c1Br [ETRAVIRINE]
[3]
  CC50 at 120 h: > 4.6 µM
[5]
  pEC50: 8.34
[6]
  pEC50: 8.46
[7]
  pEC50: 8.05
[8]
  pEC50: 7.74
[9]
  pEC50: 8.32
[11]
  pEC50: 7.69

## Cc1cc(C#N)cc(C)c1Oc1nc(Nc2ccc(C#N)cc2)c(C#N)cc1F
[1]
  pEC50: < 6.51
[2]
  pEC50: 8.13
[3]
  CC50 at 120 h: > 62.3 µM
[5]
  pEC50: 5.94
[6]
  pEC50: 5.69
[7]
  pEC50: 4.65
[8]
  pEC50: < 4.21
[9]
  pEC50: 6.47
[10]
  pEC50: ≤ 4.76
[4]
  pIC50: 6.95
In vitro
  selectivity ratio: > 8330
[11]
  pEC50: < 4.21

## Cc1ccnc2c1NC(=O)c1cccnc1N2C1CC1 [NEVIRAPINE]
[1]
  pEC50: < 8.02
[3]
  CC50 at 120 h: > 9.51 µM
[5]
  pEC50: 5.70
[7]
  pEC50: 5.38
[8]
  pEC50: < 5.02
[9]
  pEC50: 7.12
[10]
  pEC50: < 5.02
[11]
  pEC50: < 5.02

## Cc1cc(C#N)cc(C)c1Oc1nc(Nc2ccc(C#N)c(C#N)c2)c(C#N)cc1F
[1]
  pEC50: < 6.51
[2]
  pEC50: 7.57
[3]
  CC50 at 120 h: > 306 µM
[4]
  pIC50: 6.64
In vitro
  selectivity ratio: > 11400

## Cc1cc(C#N)cc(C)c1Oc1nc(Nc2ccc(C#N)cc2)c(C#N)cc1Cl
[1]
  pEC50: < 6.62
[2]
  pEC50: 7.54
[3]
  CC50 at 120 h: 240 µM
[4]
  pIC50: 6.82
In vitro
  selectivity ratio: 8340

## Cc1cc(C#N)cc(C)c1Oc1ccc(C#N)c(Nc2ccc(C#N)c(F)c2)n1
[1]
  pEC50: < 7.56
[2]
  pEC50: 5.84
[3]
  CC50 at 120 h: 27.3 µM
[4]
  pIC50: 4.92
In vitro
  selectivity ratio: 19

## Cc1cc(C#N)cc(C)c1Oc1ccc(C#N)c(Nc2ccc(CN3CCN(S(=O)(=O)N(C)C)CC3)cc2)n1
[1]
  pEC50: < 8.29
[2]
  pEC50: 6.71
[3]
  CC50 at 120 h: 5.17 µM
[4]
  pIC50: 5.81
In vitro
  selectivity ratio: 26

## Cc1cc(C#N)cc(C)c1Oc1nc(NC2CCN(Cc3ccc(S(N)(=O)=O)cc3)CC2)c(C#N)cc1Cl
[1]
  pEC50: < 7.65
[2]
  pEC50: 7.49
[3]
  CC50 at 120 h: 22.6 µM
[4]
  pIC50: 6.33
In vitro
  selectivity ratio: 691

## Cc1cc(C#N)cc(C)c1Oc1nc(NC2CCN(Cc3ccc(S(C)(=O)=O)cc3)CC2)c(C#N)cc1Cl
[1]
  pEC50: < 6.64
[2]
  pEC50: 7.66
[3]
  CC50 at 120 h: > 227 µM
[4]
  pIC50: 6.35
In vitro
  selectivity ratio: > 10400

## Cc1cc(C#N)cc(C)c1Oc1nc(Nc2ccc(CN3CCN(S(=O)(=O)N(C)C)CC3)cc2)c(C#N)cc1Cl
[1]
  pEC50: < 6.75
[2]
  pEC50: 7.16
[3]
  CC50 at 120 h: 178 µM
[4]
  pIC50: 6.16
In vitro
  selectivity ratio: 2580
